# Laboratory results from patent US10800789B2, “Antiviral compounds” (Gilead Pharmasset LLC, priority 2012, dated 2020).
# Read-outs that look alike come from different tables or passages of the source.
# Tests used:
# [1] = system: stable HCV 2a JFH-1 Rluc replicon cells (L31 present in NS5A); test: Renilla luciferase HCV replicon reporter assay, genotype 2a JFH-1; assay type: cell-based; settings: Hepatitis C virus
# In short: (§1)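 Cells carrying the stable or transiently transfected (Huh-Lunet) dicistronic RLuc replicons received 3-fold serial compound dilutions from 10 mM DMSO stocks. After 72 h, cells were lysed and Renilla luciferase read. DMSO served as the no-inhibition control and ITMN-191 above 100×EC50 as the positive control; EC50 by non-linear regression.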
# [2] = system: NS5A chimeric genotype 2a JFH-1 replicon with genotype 2a J6 strain NS5A gene (M31 present); test: Replicon assay, genotype 2a J6 NS5A chimera; assay type: cell-based, HCV; settings: Hepatitis C virus
# In short: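 72 h compound exposure (3-fold dilutions from 10 mM DMSO stocks) of replicon cells: stable dicistronic RLuc 1a H77, 1b Con1, 2a JFH-1 (NS5A L31); J6-NS5A chimera in JFH-1 (M31), transient in Huh-Lunet or stable. Renilla luciferase read-out, non-linear regression → EC50. DMSO negative control.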
# [3] = system: stable HCV 1b RLuc replicon cells (dicistronic genotype 1b Con1 replicon); test: Renilla luciferase HCV replicon reporter assay, genotype 1b; assay type: cell-based; settings: Hepatitis C virus, 72 h
# In short: as §1
# [4] = system: Q30R in genotype 1a NS5A (1a Pi-Rluc replicon, Huh-7-derived cured-51 cells); test: Replicon assay against resistance mutant 1a Q30R; assay type: cell-based, HCV; settings: Hepatitis C virus
# In short: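 Q30R introduced by site-directed mutagenesis into the 1a Pi-RLuc replicon; replicon RNA transiently transfected into cured-51 cells. Cells treated with 3-fold serially diluted compound for 72 h, then lysed and Renilla luciferase measured; EC50 by non-linear regression.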
# [5] = system: NS5A chimeric genotype 2a JFH-1 replicon with genotype 2b MD2b-1 strain NS5A gene (M31 present); test: Replicon assay, genotype 2b NS5A chimera; assay type: cell-based, HCV; settings: Hepatitis C virus
# In short: as §1
# [6] = IV and PO single dose pharmacokinetic studies in SD rats; assay type: in vivo, male Sprague-Dawley (SD) rats; settings: male SD rats, PO 2 mg/kg vs IV infusion 1 mg/kg; for bioavailability: Sprague-Dawley, rat, plasma, read-out: Rat % F
# In short: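 Fasted male Sprague-Dawley rats (250-300g, n=3/group) were given 1 mg/kg IV as a 30-min jugular infusion (5% ethanol/35% PEG 400/water pH 2.0) or 2 mg/kg by oral gavage (5% ethanol/55% PEG 400/citrate pH 2.2). Plasma was sampled to 24 h and analysed by LC/MS/MS. Non-compartmental parameters were derived, and %F was calculated from the oral/IV AUC ratio.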
# [7] = system: NS5A chimeric genotype 1b Con1 replicon with genotype 4a ED43 strain NS5A gene; test: Replicon assay, genotype 4a NS5A chimera; assay type: cell-based, HCV; settings: Hepatitis C virus
# [8] = system: NS5A chimeric genotype 1b Con1 replicon with genotype 3a S52 strain NS5A gene; test: Replicon assay, genotype 3a NS5A chimera; assay type: cell-based, HCV; settings: Hepatitis C virus
# [9] = system: stable HCV 1a RLuc replicon cells (dicistronic genotype 1a H77 replicon); test: Renilla luciferase HCV replicon reporter assay, genotype 1a; assay type: cell-based; settings: Hepatitis C virus, 72 h, stable 1a H77 RLuc replicon cells
# In short: as §1
# [10] = read-out: 2a JFH (nM), genotype 2a JFH-1 replicon (L31 in NS5A), stable cells
# [11] = read-out: 2a JFH, stable 2a JFH-1 Rluc replicon cells, L31 in NS5A, activity range
# [12] = read-out: 2a J6 (t) (nM), genotype 2a J6 NS5A chimeric replicon (M31), transiently transfected (t) into Huh-Lunet cells
# [13] = read-out: 2a J6 (t), transiently transfected (t) into Huh-Lunet cells, activity range
# [14] = 2BS, read-out: 2b (s), stably replicating replicon cells (s), activity range
# [15] = read-out: 2b (s) (nM), genotype 2b MD2b-1 NS5A chimeric replicon (M31), stably replicating replicon cells (s)
# [16] = read-out: 2b (t) (nM), genotype 2b MD2b-1 NS5A chimeric replicon (M31), transiently transfected (t)
# [17] = read-out: 2b (t), transiently transfected (t) into Huh-Lunet cells, activity range
# [18] = read-out: 4a (s) (nM), genotype 4a NS5A chimeric replicon, stable replicon cells (s)
# [19] = read-out: 4a (s), (s), activity range
# [20] = read-out: 3a (s) (nM), genotype 3a NS5A chimeric replicon, stable replicon cells (s)
# [21] = read-out: 3a (s), (s), activity range
# [22] = stable 1b Con1 RLuc replicon cells, 72 hours, read-out: 1b
# [23] = read-out: 3a (t) (nM), genotype 3a NS5A chimeric replicon, transiently transfected (t)
# [24] = read-out: 3a (t), transiently transfected (t) into Huh-Lunet cells, activity range
SMILES,"EC50 [1, 10] [nM]","EC50 [1, 11] [nM]","EC50 [2, 12] [nM]","EC50 [2, 13] [nM]",EC50 ([4]; read-out: 1a Q30R) [nM],EC50 ([4]; read-out: 1a Q30R (nM)) [nM],"EC50 [5, 14] [nM]","EC50 [5, 15] [nM]","EC50 [5, 16] [nM]","EC50 [5, 17] [nM]","EC50 [7, 18] [nM]","EC50 [7, 19] [nM]","EC50 [8, 20] [nM]","EC50 [8, 21] [nM]",EC50 [9] [nM],EC50 ([9]; activity range) [nM],"EC50 [3, 22] [nM]",bioavailability [6] [%],"EC50 [8, 23] [nM]","EC50 [8, 24] [nM]",other results
"COC(=O)N[C@H](C(=O)N1[C@@H](C)CC[C@H]1c1ncc(-c2ccc3c(c2)COc2cc4c(ccc5nc([C@@H]6CC[C@H](C)N6C(=O)[C@@H](NC(=O)OC)C6CCOCC6)[nH]c54)cc2-3)[nH]1)C(C)C [FC, Methyl [(1 S)-2-[(2S,5S)-2-(9-{2-[(2S,5S)-1-{(2S)-2-[(methoxycarbonyl)amino]-3-methylbutanoyl}-5-methylpyrrolidin-2-yl]-1H-imidazol-5-yl}-1,11-dihydroisochromeno[4′,3′:6,7]naphtho[1,2-d]imidazol-2-yl)-5-methylpyrrolidin-1-yl]-2-oxo-1-(tetrahydro-2H-pyran-4-yl)ethyl]carbamate]",0.011,< 0.1,0.015,< 0.1,< 0.1,0.031,< 0.1,0.048,0.024,< 0.1,0.011,< 0.1,0.031,< 0.1,0.014,< 0.1,,,,,"EC50 ([3]; read-out: 1b (nM), stable 1b Con1 RLuc replicon cells, 72 hours): 0.021 nM; Rat % F ([6]; oral bioavailability): 0%"
CC[C@H]1CC[C@@H](c2ncc(-c3ccc4c(c3)COc3cc5c(ccc6nc([C@@H]7CC[C@H](C)N7C(=O)[C@@H](NC(=O)OC)C(C)C)[nH]c65)cc3-4)[nH]2)N1C(=O)[C@@H](NC(=O)OC)C1CCOCC1 [HQ],0.024,< 0.1,0.088,< 0.1,< 0.1,0.031,0.1 to 0.999,0.233,0.079,< 0.1,0.02,< 0.1,0.076,< 0.1,0.022,< 0.1,0.027,34.3,0.049,< 0.1,
"COC(=O)NC(C(=O)N1[C@@H](C)CC[C@H]1c1nc2ccc3cc4c(cc3c2[nH]1)OCc1cc(-c2cnc([C@@H]3CC[C@H](C)N3C(=O)[C@@H](NC(=O)OC)C3CCOCC3)[nH]2)ccc1-4)C1CCOCC1 (stereo partly drawn) [EB, Methyl [(1 S)-2-[(2S,5S)-2-(5-{2-[(2S,5S)-1-{[(methoxycarbonyl)amino](tetrahydro-2H-pyran-4-yl)acetyl}-5-methylpyrrolidin-2-yl]-1,11-dihydroisochromeno[4′,3′:6,7]naphtho[1,2-d]imidazol-9-yl}-1H-imidazol-2-yl)-5-methylpyrrolidin-1-yl]-2-oxo-1-(tetrahydro-2H-pyran-4-yl)ethyl]carbamate]",0.012,< 0.1,0.012,< 0.1,< 0.1,0.042,< 0.1,0.038,0.092,< 0.1,0.014,< 0.1,0.075,< 0.1,0.024,< 0.1,0.051,4.2,,,
"COC[C@H]1C[C@@H](c2nc(Cl)c(-c3ccc4c(c3)COc3cc5c(ccc6nc([C@@H]7CC[C@H](C)N7C(=O)[C@@H](NC(=O)OC)C(C)C)[nH]c65)cc3-4)[nH]2)N(C(=O)[C@H](NC(=O)OC)c2ccccc2)C1 [FY, Methyl {(1R)-2-[(2S,4S)-2-(4-chloro-5-{2-[(2S,5S)-1-{(2S)-2-[(methoxycarbonyl)amino]-3-methylbutanoyl}-5-methylpyrrolidin-2-yl]-1,11-dihydroisochromeno[4′,3′:6,7]naphtho[1,2-d]imidazol-9-yl}-1H-imidazol-2-yl)-4-(methoxymethyl)pyrrolidin-1-yl]-2-oxo-1-phenylethyl}carbamate]",0.007,< 0.1,0.005,< 0.1,< 0.1,0.017,< 0.1,0.034,,,0.005,< 0.1,0.029,< 0.1,0.01,< 0.1,0.017,13.5,,,
"CC[C@H](C)C(NC(=O)OC)C(=O)N1[C@@H](C)CC[C@H]1c1nc2ccc3cc4c(cc3c2[nH]1)OCc1cc(-c2cnc([C@@H]3CC[C@H](C)N3C(=O)[C@@H](NC(=O)OC)[C@@H](C)OC)[nH]2)ccc1-4 (stereo partly drawn) [EH, methyl{(3S)-1-[(2S,5S)-2-(9-{2-[(2S,5S)-1-{(2S,3R)-3-methoxy-2-[(methoxycarbonyl)amino]butanoyl}-5-methylpyrrolidin-2-yl]-1H-imidazol-5-yl}-1,11-dihydroisochromeno[4′,3′:6,7]naphtho[1,2-d]imidazol-2-yl)-5-methylpyrrolidin-1-yl]-3-methyl-1-oxopentan-2-yl}carbamate]",0.013,< 0.1,0.086,< 0.1,< 0.1,0.082,0.1 to 0.999,0.153,,,0.006,< 0.1,0.022,< 0.1,0.011,< 0.1,0.015,15.8,0.024,< 0.1,
